Results from patent US20220211478A1, “SURGICAL SYSTEM AND METHODS OF USE” (priority 2021, published 2022).

Columns and labels:
[1] = tested on: fibrinolysis; assay: prevention / reversal of fibrinolysis; settings: relative to doses of the non-GLP acute porcine study
From the text: (§1) However, in some embodiments, however, higher doses of tranexamic acid are used for topical applications to account for tranexamic acid being widely distributed throughout the extracellular and intracellular compartments when given preoperatively.

[2] = in vivo
From the text: as §1

[3] = tested on: myofibroblast formation; settings: capsular contracture with breast implants; Ajmal et al. (2003); cited from earlier work

time to reach plasma concentrations [2]	SMILES	dose effective in reversing fibrinolysis [1]	effect on myofibroblast formation [3]
5 to 15 min	NC[C@H]1CC[C@H](C(=O)O)CC1 [tranexamic acid, trans-4-(aminomethyl)cyclohexanecarboxylic acid]	one tenth of the doses used in the non-GLP acute porcine study	
	O=S(=O)([O-])CCS.[Na+] [MESNA, sodium 2-mercaptoethane sulfonate]		diminish myofibroblast formation
